# Measured values as given in patent US12077483B2, “Modified amine lipids” (Intellia Therapeutics, Inc., priority 2018, dated 2024).
# Values joined by “and” are separate entries in the source; they are usually repeats but may differ in a detail not shown here. Equal entries are not always repeated.
# Columns and labels:
# mouse TTR = experiment: Serum TTR ELISA in mice after LNP delivery; assay type: in vivo
# Method in brief: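 Mouse TTR in serum was quantified by ELISA (samples diluted e.g. 10,000- and/or 2,500-fold) 6–7 days after dosing CD-1 females with LNP, typically 0.1 mpk. Values are reported relative to vehicle-treated controls (%).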
# [1] = LNP average particle size and polydispersity by dynamic light scattering; assay type: physicochemical
# Method in brief: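 LNPs were diluted in PBS to a count rate of about 200-400 kcps and measured by DLS on a Zetasizer. Size is the intensity-weighted Z-average diameter, reported with number-average diameter, and the polydispersity index describes the spread of sizes around the mean.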
# [2] = pKa of amine lipid by TNS fluorescence; assay type: physicochemical; settings: probe TNS (6-(p-toluidino)-2-naphthalenesulfonic acid sodium salt), unformulated amine lipid in ethanol, sodium phosphate buffers -9.0
# Method in brief: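 pKa derived from a sigmoidal fit of normalized TNS fluorescence (321 nm excitation, 448 nm emission) versus pH. Lipid from ethanol stock diluted to about 100 μM final in 0.1 M phosphate buffers, pH 4.5–9.0.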
# [3] = RNA encapsulation efficiency of LNP (Ribogreen fluorescence assay); assay type: physicochemical
# Method in brief: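 LNP samples diluted in 1× TE with or without 0.2% Triton-X 100 for total or free RNA, stained ~10 min at room temperature in the dark with RiboGreen; fluorescence ex 488/em 525 nm against RNA standard curves. Encapsulation efficiency = (Total RNA−Free RNA)/Total RNA.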
# [4] = mouse serum, relative to TSS control of same experiment, dose 0.03 mpk
# [5] = mouse serum, relative to TSS control of same experiment, dose 0.1 mpk
# [6] = LNP with the compound as amine lipid, Expt. 8, composition ratio (mol %) 50/9/38/3 for Cmpnd 49, 50/10/38.5/1.5 for the others
# [7] = Table 4, LNP with G00282 sgRNA:Cas9 mRNA 1:1 w/w, N/P 6.0
# [8] = LNP with the compound as amine lipid, Expt. 1, composition ratio (mol %) 50/9/38/3 for Cmpnd 49, 50/10/38.5/1.5 for the others
# [9] = LNP with the compound as amine lipid, Expt. 6, composition ratio (mol %) 50/9/38/3 for Cmpnd 49, 50/10/38.5/1.5 for the others
# [10] = LNP with the compound as amine lipid, Expt. 10, composition ratio (mol %) 50/9/38/3 for Cmpnd 49, 50/10/38.5/1.5 for the others
# [11] = Table 6, LNP with G00282 sgRNA:Cas9 mRNA 1:1 w/w
# [12] = Table 10, LNP with G00534 sgRNA:Cas9 mRNA 1:2 w/w
# [13] = Table 13, LNP sgRNA:Cas9 mRNA 1:2 w/w, N/P 6.0
compound,measurement,setting,value
"CCCCC/C=C\C/C=C\CCCCCCCC(=O)OCC(COC(=O)CCCCCCC/C=C\C/C=C\CCCCC)OC(=O)CCC(CCCCCCCCCCCC)OC(=O)NCC1CCCN1C (centres unmarked) [Compound 9, 2-((4-((((1-methylpyrrolidin-2-yl)methyl)carbamoyl)oxy)hexadecanoyl)oxy) propane-1,3-diyl (9Z,9′Z,12Z,12′Z)-bis(octadeca-9,12-dienoate)]",Serum TTR,"mouse TTR; Table 3, guide G282, CD-1 female mice, 0.1 mpk i.v., Exp. 1, 8, 9, 10",339 µg/mL
same,Serum TTR % TSS,"mouse TTR; Table 3, guide G282, CD-1 female mice, 0.1 mpk i.v., percentage of vehicle control (TSS)",38% TSS
same,Serum TTR % TSS,mouse TTR; [4],114.02 % TSS
same,Serum TTR % TSS,mouse TTR; [5],103.19 % TSS
same,Num Ave Size (nm),[1]; [6],48.82 nm
same,PDI,[1]; [6],0.074
same,Z-Ave Size (nm),[1]; [6],64.83 nm
same,Num Ave Size (nm),[1]; [7],59.99 nm
same,PDI,[1]; [7],0.033
same,Z-Ave Size (nm),[1]; [7],74.83 nm
same,pKa,[2],6.32
same,Encapsulation (%),[3]; [6],98%
same,Encapsulation (%),[3]; [7],97%
"CCCCC/C=C\C/C=C\CCCCCCCC(=O)OCC(COC(=O)CCCCCCC/C=C\C/C=C\CCCCC)OC(=O)CCC(CCCCCCCC)OC(=O)NCCN(C)CC (centres unmarked) [Compound 34, 2-((4-(((2-(ethyl(methyl)amino)ethyl)carbamoyl)oxy)dodecanoyl)oxy)propane-1,3-diyl (9Z,9′Z,12Z,12′Z)-bis(octadeca-9,12-dienoate)]",Serum TTR,"mouse TTR; Table 7, G00282, CD-1 female mice i.v., dose 0.1 mpk",170 µg/mL
same,Serum TTR % TSS,"mouse TTR; Table 7, G00282, CD-1 female mice i.v., dose 0.1 mpk, percentage of vehicle control",21% TSS
same,Serum TTR,"mouse TTR; Table 7, G00282, CD-1 female mice i.v., dose 0.3 mpk",45 µg/mL
same,Serum TTR % TSS,"mouse TTR; Table 7, G00282, CD-1 female mice i.v., dose 0.3 mpk, percentage of vehicle control",5% TSS
same,Serum TTR % TSS,"mouse TTR; mouse serum, relative to TSS control of same experiment, dose 0.03 mpk, 0.03 mg/kg",55% TSS and 85.10 % TSS
same,Num Ave Size (nm),[1]; [8],76.32 nm
same,PDI,[1]; [8],0.02
same,Z-Ave Size (nm),[1]; [8],93.66 nm
same,Num Ave Size (nm),[1]; [9],73 nm
same,PDI,[1]; [9],0.03
same,Z-Ave Size (nm),[1]; [9],89.00 nm
same,Num Ave Size (nm),[1]; [10],77 nm
same,PDI,[1]; [10],0.03
same,Z-Ave Size (nm),[1]; [10],95 nm
same,Num Ave Size (nm),[1]; [11],71.97 nm
same,PDI,[1]; [11],0.015
same,Z-Ave Size (nm),[1]; [11],86.45 nm
same,Num Avg Size (nm),[1]; [12],76.08 nm
same,PDI,[1]; [12],0.052
same,Z-Avg Size (nm),[1]; [12],96.43 nm
same,Number Average [nm],[1]; [13],75.88 nm
same,PDI,[1]; [13],0.009
same,Z-Ave Size (nm),[1]; [13],93.01 nm
same,pKa,[2],6.36
same,Encapsulation (%),[3]; [8],98%
same,Encapsulation (%),[3]; [9],98%
same,Encapsulation (%),[3]; [10],98%
same,Encapsulation (%),[3]; [11],98%
same,Encapsulation (%),[3]; [12],93%
same,% E,[3]; [13],97%
"CCCCC/C=C\C/C=C\CCCCCCCC(=O)OCC(COC(=O)CCCCCCC/C=C\C/C=C\CCCCC)OC(=O)CCC(CCCCCCCC)OC(=O)NCC1CCCN1C (centres unmarked) [Compound 35, 2-((4-((((1-methylpyrrolidin-2-yl)methyl)carbamoyl)oxy)dodecanoyl)oxy) propane-1,3-diyl (9Z,9′Z,12Z,12′Z)-bis(octadeca-9,12-dienoate)]",Serum TTR % TSS,mouse TTR; [4],104.30 % TSS
same,Serum TTR % TSS,mouse TTR; [5],99.13 % TSS
same,Num Ave Size (nm),[1]; [6],62.82 nm
same,PDI,[1]; [6],0.068
same,Z-Ave Size (nm),[1]; [6],81.51 nm
same,pKa,[2],6.35
same,Encapsulation (%),[3]; [6],99%
